Measurements published in the NIST ThermoML archive (doi:10.1021/je600519p).

Experiment: xn = mol fraction of the nth substance listed
Conditions: 101 kPa, Liquid

CC(=O)c1ccccc1 [acetophenone] + CCCCCCO
Conditions	mass density [kg/m3]	speed of sound [m/s]	viscosity [mPa·s]
293.15 K, x1 = 0.0498	828.69	1316	4.831
293.15 K, x1 = 0.1009	838.84	1323	4.397
293.15 K, x1 = 0.1517	848.99	1331	3.997
293.15 K, x1 = 0.2106	860.83	1341	3.605
293.15 K, x1 = 0.2474	868.27	1348	3.31
293.15 K, x1 = 0.3028	879.53	1358	2.986
293.15 K, x1 = 0.3426	887.67	1365	2.744
293.15 K, x1 = 0.3978	899.01	1375	2.491
293.15 K, x1 = 0.4512	910.05	1385	2.266
293.15 K, x1 = 0.4985	919.88	1394	2.085
293.15 K, x1 = 0.5526	931.2	1404	1.93
293.15 K, x1 = 0.6071	942.67	1415	1.798
293.15 K, x1 = 0.6491	951.55	1424	1.744
293.15 K, x1 = 0.7101	964.53	1437	1.65
293.15 K, x1 = 0.7485	972.75	1445	1.664
293.15 K, x1 = 0.8019	984.23	1457	1.673
293.15 K, x1 = 0.8521	995.09	1467	1.691
293.15 K, x1 = 0.9045	1006.5	1476	1.71
293.15 K, x1 = 0.9554	1017.63	1485	1.727
303.15 K, x1 = 0.0498	821.41	1285	3.559
303.15 K, x1 = 0.1009	831.48	1293	3.262
303.15 K, x1 = 0.1517	841.54	1302	2.989
303.15 K, x1 = 0.2106	853.28	1313	2.725
303.15 K, x1 = 0.2474	860.66	1320	2.511
303.15 K, x1 = 0.3028	871.83	1332	2.306
303.15 K, x1 = 0.3426	879.89	1340	2.148
303.15 K, x1 = 0.3978	891.14	1351	1.961
303.15 K, x1 = 0.4512	902.09	1362	1.805
303.15 K, x1 = 0.4985	911.85	1371	1.692
303.15 K, x1 = 0.5526	923.08	1382	1.583
303.15 K, x1 = 0.6071	934.47	1393	1.488
303.15 K, x1 = 0.6491	943.29	1402	1.442
303.15 K, x1 = 0.7101	956.19	1414	1.431
303.15 K, x1 = 0.7485	964.35	1421	1.426
303.15 K, x1 = 0.8019	975.77	1430	1.455
303.15 K, x1 = 0.8521	986.56	1439	1.465
303.15 K, x1 = 0.9045	997.88	1445	1.48
303.15 K, x1 = 0.9554	1008.95	1451	1.496
313.15 K, x1 = 0.0498	813.97	1277	2.684
313.15 K, x1 = 0.1009	823.85	1285	2.481
313.15 K, x1 = 0.1517	833.75	1293	2.292
313.15 K, x1 = 0.2106	845.32	1303	2.104
313.15 K, x1 = 0.2474	852.58	1310	1.977
313.15 K, x1 = 0.3028	863.61	1320	1.812
313.15 K, x1 = 0.3426	871.57	1328	1.697
313.15 K, x1 = 0.3978	882.7	1339	1.58
313.15 K, x1 = 0.4512	893.55	1350	1.483
313.15 K, x1 = 0.4985	903.23	1360	1.396
313.15 K, x1 = 0.5526	914.38	1370	1.322
313.15 K, x1 = 0.6071	925.7	1380	1.263
313.15 K, x1 = 0.6491	934.49	1387	1.255
313.15 K, x1 = 0.7101	947.35	1398	1.243
313.15 K, x1 = 0.7485	955.5	1404	1.252
313.15 K, x1 = 0.8019	966.9	1408	1.264
313.15 K, x1 = 0.8521	977.72	1409	1.266
313.15 K, x1 = 0.9045	989.09	1411	1.271
313.15 K, x1 = 0.9554	1000.23	1416	1.276
323.15 K, x1 = 0.0498	806.47	1230	2.119
323.15 K, x1 = 0.1009	816.28	1238	1.97
323.15 K, x1 = 0.1517	826.11	1247	1.831
323.15 K, x1 = 0.2106	837.59	1259	1.69
323.15 K, x1 = 0.2474	844.8	1266	1.585
323.15 K, x1 = 0.3028	855.74	1278	1.48
323.15 K, x1 = 0.3426	863.65	1287	1.395
323.15 K, x1 = 0.3978	874.71	1298	1.307
323.15 K, x1 = 0.4512	885.48	1308	1.236
323.15 K, x1 = 0.4985	895.1	1316	1.169
323.15 K, x1 = 0.5526	906.19	1326	1.118
323.15 K, x1 = 0.6071	917.44	1335	1.075
323.15 K, x1 = 0.6491	926.17	1342	1.069
323.15 K, x1 = 0.7101	938.95	1351	1.073
323.15 K, x1 = 0.7485	947.06	1356	1.075
323.15 K, x1 = 0.8019	958.4	1361	1.073
323.15 K, x1 = 0.8521	969.16	1365	1.067
323.15 K, x1 = 0.9045	980.48	1370	1.076
323.15 K, x1 = 0.9554	991.56	1372	1.086
